How the values were obtained:
A549 cells [1] = test: High-throughput proliferation (HTP) assay for A549 cells (CellTiter-Glo, 7 days); type: cell-based; conditions: Homo sapiens, 168 h, read-out: A549 SMARCA2 IC50
Procedure, shortened: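 A549 cells plated at 62.5 cells/well in F12K + 10% HI-FBS onto pre-dispensed compound, grown 7 days at 37° C., 5% CO2. Viability by CellTiter-Glo luminescence after 30 min at RT; EC50/IC50 from DMSO (0%) and 10 μM Doxorubicin (100%) inhibition controls.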

FL-SMARCA4 = FL-SMARCA4 (Homo sapiens, UniProt P51532); test: SMARCA4 ATPase activity assay (ADP-Glo, chicken mononucleosome substrate); conditions: FL-SMARCA4 IC50, Table 3.2; ATPase assay, enzyme 5 nM, ATP 250 uM, chicken mononucleosome 10 nM, 30 min preincubation
Chain of FL-SMARCA4 (P51532 whole entry): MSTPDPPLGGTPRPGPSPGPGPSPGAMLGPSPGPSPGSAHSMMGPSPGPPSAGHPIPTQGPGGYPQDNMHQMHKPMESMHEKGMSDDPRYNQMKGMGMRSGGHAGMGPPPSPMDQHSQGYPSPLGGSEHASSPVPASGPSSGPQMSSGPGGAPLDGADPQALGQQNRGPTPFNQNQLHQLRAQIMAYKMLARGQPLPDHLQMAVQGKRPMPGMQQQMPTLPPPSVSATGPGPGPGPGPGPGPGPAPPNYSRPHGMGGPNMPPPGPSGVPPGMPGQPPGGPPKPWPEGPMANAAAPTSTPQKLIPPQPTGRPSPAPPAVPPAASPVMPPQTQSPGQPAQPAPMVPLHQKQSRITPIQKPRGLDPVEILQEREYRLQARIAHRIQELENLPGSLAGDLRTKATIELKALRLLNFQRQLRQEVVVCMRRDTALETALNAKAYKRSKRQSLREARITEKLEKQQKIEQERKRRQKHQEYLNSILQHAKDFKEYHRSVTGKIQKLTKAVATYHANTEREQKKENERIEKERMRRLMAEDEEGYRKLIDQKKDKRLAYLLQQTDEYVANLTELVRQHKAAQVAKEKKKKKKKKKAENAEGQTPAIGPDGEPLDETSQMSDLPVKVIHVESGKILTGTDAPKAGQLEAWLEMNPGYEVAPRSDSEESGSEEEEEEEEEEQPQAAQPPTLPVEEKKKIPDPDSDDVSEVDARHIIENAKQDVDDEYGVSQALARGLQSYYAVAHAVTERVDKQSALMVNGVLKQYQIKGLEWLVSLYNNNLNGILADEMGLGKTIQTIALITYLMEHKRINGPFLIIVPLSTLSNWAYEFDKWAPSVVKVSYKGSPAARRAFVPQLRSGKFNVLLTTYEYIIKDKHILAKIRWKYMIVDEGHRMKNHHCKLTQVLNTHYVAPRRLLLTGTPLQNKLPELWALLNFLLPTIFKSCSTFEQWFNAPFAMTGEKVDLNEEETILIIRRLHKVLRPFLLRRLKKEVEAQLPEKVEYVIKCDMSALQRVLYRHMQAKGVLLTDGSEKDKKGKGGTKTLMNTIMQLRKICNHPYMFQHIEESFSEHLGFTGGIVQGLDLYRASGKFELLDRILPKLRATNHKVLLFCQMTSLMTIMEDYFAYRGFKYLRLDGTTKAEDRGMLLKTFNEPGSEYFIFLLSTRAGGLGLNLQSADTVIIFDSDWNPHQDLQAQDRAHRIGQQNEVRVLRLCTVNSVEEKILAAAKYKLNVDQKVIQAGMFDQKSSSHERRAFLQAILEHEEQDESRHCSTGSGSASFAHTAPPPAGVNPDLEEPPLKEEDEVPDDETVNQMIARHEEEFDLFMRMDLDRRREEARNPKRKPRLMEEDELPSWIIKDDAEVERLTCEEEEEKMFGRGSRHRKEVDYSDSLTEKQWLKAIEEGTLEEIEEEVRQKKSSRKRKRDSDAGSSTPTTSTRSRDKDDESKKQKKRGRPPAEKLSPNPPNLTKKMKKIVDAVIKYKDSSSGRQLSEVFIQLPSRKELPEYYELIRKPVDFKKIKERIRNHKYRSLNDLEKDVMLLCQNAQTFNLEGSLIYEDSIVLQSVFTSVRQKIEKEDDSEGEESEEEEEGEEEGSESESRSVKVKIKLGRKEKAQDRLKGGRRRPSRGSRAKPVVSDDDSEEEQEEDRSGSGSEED

SMARCA2 = target: T1, SMARCA2 (Homo sapiens, UniProt P51531); test: SMARCA2 FRET nucleosome remodeling activity assay; type: biochemical
T1 construct: FLAG tag (YKDDDDK) (C); made in house; host or cells: Sf21 insect cells (baculovirus, pFastBacI)
T1 sequence (P51531 with tags, fused parts or gaps): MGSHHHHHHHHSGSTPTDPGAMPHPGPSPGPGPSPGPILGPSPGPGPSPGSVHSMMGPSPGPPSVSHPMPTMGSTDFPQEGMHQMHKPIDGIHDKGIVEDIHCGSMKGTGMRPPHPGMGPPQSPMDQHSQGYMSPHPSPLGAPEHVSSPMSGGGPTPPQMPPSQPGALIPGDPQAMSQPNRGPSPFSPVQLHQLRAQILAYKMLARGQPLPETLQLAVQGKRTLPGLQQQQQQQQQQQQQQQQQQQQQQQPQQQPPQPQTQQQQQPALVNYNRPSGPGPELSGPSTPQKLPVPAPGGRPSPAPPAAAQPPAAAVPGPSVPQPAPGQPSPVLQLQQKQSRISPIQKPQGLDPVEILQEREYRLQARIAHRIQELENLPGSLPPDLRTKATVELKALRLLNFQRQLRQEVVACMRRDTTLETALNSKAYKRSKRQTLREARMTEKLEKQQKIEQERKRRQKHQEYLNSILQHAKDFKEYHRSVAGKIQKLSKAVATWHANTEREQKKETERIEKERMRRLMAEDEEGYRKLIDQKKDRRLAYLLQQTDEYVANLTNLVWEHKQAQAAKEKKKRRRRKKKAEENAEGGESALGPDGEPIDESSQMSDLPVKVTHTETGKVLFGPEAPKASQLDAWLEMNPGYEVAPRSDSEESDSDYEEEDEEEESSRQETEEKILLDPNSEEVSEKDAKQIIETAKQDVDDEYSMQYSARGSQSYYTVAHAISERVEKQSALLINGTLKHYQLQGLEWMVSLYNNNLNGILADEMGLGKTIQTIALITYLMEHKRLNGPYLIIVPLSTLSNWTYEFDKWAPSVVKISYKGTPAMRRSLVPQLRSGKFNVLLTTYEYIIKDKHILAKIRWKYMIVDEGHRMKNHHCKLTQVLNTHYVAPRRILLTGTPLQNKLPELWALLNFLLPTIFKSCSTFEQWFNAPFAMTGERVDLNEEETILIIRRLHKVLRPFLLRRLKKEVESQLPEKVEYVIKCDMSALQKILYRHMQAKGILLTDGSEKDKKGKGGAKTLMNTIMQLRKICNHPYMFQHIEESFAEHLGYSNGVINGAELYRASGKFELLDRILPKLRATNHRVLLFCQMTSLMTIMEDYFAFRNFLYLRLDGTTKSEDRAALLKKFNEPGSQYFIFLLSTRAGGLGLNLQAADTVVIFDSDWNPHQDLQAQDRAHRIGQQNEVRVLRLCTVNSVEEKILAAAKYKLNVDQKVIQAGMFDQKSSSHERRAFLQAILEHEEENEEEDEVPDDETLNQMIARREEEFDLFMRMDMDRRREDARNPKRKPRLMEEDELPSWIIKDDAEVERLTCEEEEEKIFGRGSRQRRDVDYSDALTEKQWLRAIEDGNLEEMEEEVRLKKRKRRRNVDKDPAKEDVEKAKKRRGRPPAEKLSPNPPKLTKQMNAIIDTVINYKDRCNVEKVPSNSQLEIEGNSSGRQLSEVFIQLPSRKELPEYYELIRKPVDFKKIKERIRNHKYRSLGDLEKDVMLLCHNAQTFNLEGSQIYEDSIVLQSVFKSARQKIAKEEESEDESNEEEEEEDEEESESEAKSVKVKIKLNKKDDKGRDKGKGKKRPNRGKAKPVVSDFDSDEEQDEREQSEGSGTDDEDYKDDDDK
Method: The SMARCA2 remodeling assay was initiated by the addition of 2 uL of a nucleosome remodeling assay substrate and ATP mixture (final volume=10 uL). […] The assays were terminated after 15 minutes by the addition of 2 uL EDTA (final concentration of 25 mM). The SMARCA2 remodeling activity was determined by measuring the fluorescence ratio of the Cy3 and Cy5 labels ([…]). The remodeling of the nucleosome substrate causes an increase in the spacing between the Cy3 and Cy5 labels and therefore a reduction in FRET and an increase in Cy3/Cy5 fluorescence ratio.

[2] = target: T2, FL-SMARCA2 (full-length human SMARCA2 isoform 1) (Homo sapiens, UniProt P51531); test: SMARCA2 ATPase activity assay (ADP-Glo, chicken mononucleosome substrate); type: biochemical; conditions: Table 3.1; ATPase assay, enzyme 5 nM, ATP 250 uM, chicken mononucleosome 10 nM, 30 min preincubation
T2 construct: FLAG tag (YKDDDDK) (C); made in house; host or cells: Sf21 insect cells (baculovirus, pFastBacI)
T2 sequence (P51531 with tags, fused parts or gaps): as above

A549 cells [3] = test: Long term proliferation (LTP) assay, day 15 IC50 in A549 cells; type: cell-based; conditions: Homo sapiens, 360 h

Compound	IC50 (A549 cells [1])	IC50 (FL-SMARCA4)	IC50 (SMARCA2)	IC50 [2]	IC50 (A549 cells [3])
O=C(Nc1cc(Cl)c(=O)n(CCF)c1)c1cc(Cl)c(Cl)s1 [Compound 101]	2.27 µM	237 nM	314 nM	74.1 nM	356 nM
CCn1cc(NC(=O)c2cc(C#N)c(C#N)s2)cc(F)c1=O [Compound 188]	18.1 µM	119 nM	22.2 nM	30.5 nM	9900 nM
N#Cc1sc(C(=O)Nc2cc(Cl)c(=O)n(CCF)c2)cc1Cl [Compound 125, 4-Chloro-N-(5-chloro-1-(2-fluoroethyl)-6-oxo-1,6-dihydropyridin-3-yl)-5-cyanothiophene-2-carboxamide]	1.16 µM	108 nM	66.1 nM	30.9 nM	484 nM
N#Cc1cc(C(=O)Nc2cc(F)c(=O)n(CC(F)(F)F)c2)sc1C#N [Compound 190]	12 µM	85.1 nM	35 nM	20.1 nM	3900 nM
N#Cc1cc(C(=O)Nc2cc(Cl)c(=O)n(CCF)c2)sc1C#N [Compound 192]	≥ 20 µM	87.4 nM	21.9 nM	17.1 nM	4200 nM

Next, values leading:

IC50 (A549 cells [1])	IC50 (FL-SMARCA4)	IC50 (SMARCA2)	IC50 [2]	IC50 (A549 cells [3])	Compound
7.3 µM	590 nM	143 nM	81.5 nM	851 nM	O=C(Nc1cc(F)c(=O)n(CCF)c1)c1cnc(C(F)(F)F)s1 [Compound 265]
0.734 µM	260 nM	70 nM	35.8 nM	323 nM	O=C(Nc1cc(F)c(=O)n(CCF)c1)c1cc(Cl)c(C(F)(F)F)s1 [Compound 249]

Reference: patent US20220356174A1, “PYRIDIN-2-ONE COMPOUNDS USEFUL AS SMARCA2 ANTAGONISTS” (Epizyme, Inc., priority 2018, published 2022)
